Assay [1] deals with full-length wt-BTK enzyme (Homo sapiens (Human), UniProt Q06187). Kind of assay: Biochemical kinase assay wt-BTK (IMAP). The method in brief: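 Compound and enzyme (final 1.2 nM) were pre-incubated for 1 h at RT, after which the reaction was started with 4 μM ATP plus 50 nM fluorescein-MBP substrate peptide. After 2 h in the dark, the IMAP progressive binding reagent stopped the reaction, and phosphorylation was read by fluorescence polarization.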

The next assay concerns REC-1 T474I cell lines. Kind of assay: Cell proliferation assay REC-1 BTK T474I knock-in cells (ATPlite, 72 hours). Format: cell-based. As to conditions: Homo sapiens, Rec1; 72 hours; read-out: IC50 REC-1 T474I. Summed up: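 REC-1 cells carrying CRISPR knock-in mutant BTK, single-cell cloned and sequence-confirmed, were exposed to compound for 72 h and read by ATPlite luminescence. Percentage growth was calculated against the signal at the start of incubation and against untreated 0.3% DMSO wells as maximum growth.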
Background: ATP-based viability assays read luminescence as a measure of living cells.

A further assay concerns the target BTK C481S (Homo sapiens (Human), UniProt Q06187, C481S). Kind of assay: Binding kinetics measurements (Surface Plasmon Resonance) on BTK C481S. As to conditions: for Kd: binding affinity by Surface Plasmon Resonance (SPR); for Tau (h) BTK C418S (Act): target residence time for BTK C481S, SPR. Summed up: (§1)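 Using streptavidin-captured kinase, binding was followed by SPR in 1% DMSO buffer at 22° C and 30 μl/min. Five consecutive compound injections spanned 3.16-316 nM, preceded by a blank run; data were double referenced before kinetic fitting.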

In another assay the target is BTK T474I (Homo sapiens (Human), UniProt Q06187, T474I). In words: Binding kinetics measurements (Surface Plasmon Resonance) on BTK T474I. As to conditions: for Kd: binding affinity by Surface Plasmon Resonance (SPR); for Tau (h) BTK T474I (Act): target residence time, SPR. Summed up:
as §1

Assay [2] relates to wt-REC-1 mantle cell lymphoma cells. In words: Cell proliferation assay wt-REC-1 (ATPlite, 72 hours). As to conditions: 72 h; read-out: IC50 wt-REC-1. The format is cell-based. The method in brief: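 Luminescent viability read over 72 h, start-of-incubation signal recorded separately to separate growth from cell death. Percentage growth referenced to compound-free 0.3% DMSO wells; IC50 from 4-parameter logistic fit.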

Another assay has as its target BTK T316A (Homo sapiens (Human), UniProt Q06187, T316A). Kind of assay: Binding kinetics measurements (Surface Plasmon Resonance) on BTK T316A. As to conditions: for Kd: binding affinity by Surface Plasmon Resonance (SPR); for Tau (h) BTK T316A (Act): target residence time, SPR. Summed up: as §1
The subject of assay [3] is wt-TMD8 diffuse large B-cell lymphoma cells. Kind of assay: Cell proliferation assay wt-TMD8 (ATPlite, 120 hours). Format: cell-based. As to conditions: B-cell; wt-TMD8 cells, 120 hours, ATPlite; read-out: IC50 wt-TMD8. Summed up:
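Readout is percentage growth from ATPlite 1Step luminescence after 5 days (120 h) compound treatment of wt-TMD8 lymphoma cells (1600/well, RPMI-1640 + 10% FBS). Time-zero signal separates growth inhibition from cell kill; 0.3% DMSO wells without compound define maximal growth.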

The next assay concerns the target wt-BTK (Homo sapiens (Human), UniProt Q06187). In words: Binding kinetics measurements (Surface Plasmon Resonance) on wt-BTK. As to conditions: for Kd: binding affinity by Surface Plasmon Resonance (SPR); for Tau (h) wt-BTK (Act): target residence time, SPR. Summed up: as §1
In the next assay the target is BTK T474S (Homo sapiens (Human), UniProt Q06187, T474S). In words: Binding kinetics measurements (Surface Plasmon Resonance) on BTK T474S. As to conditions: for residence time: SPR binding kinetics, BTK T474S, read-out: Tau (h) BTK T474S (Act), target residence time (converted); for Kd: binding affinity by Surface Plasmon Resonance (SPR). The method in brief:
as §1
Background: SPR reads the build-up and loss of mass on a sensor chip optically.

For assay [4], the target named is full-length BTK C481S enzyme (Homo sapiens (Human), UniProt Q06187, C481S). Kind of assay: Biochemical kinase assay BTK C481S (IMAP). The method in brief: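 IC50 values come from IMAP fluorescence polarization after quenching with progressive binding solution. The reaction ran 2 h at room temperature in the dark with 1.2 nM full-length C481S enzyme, 7 μM ATP and 50 nM fluorescein-labelled MBP-derived peptide, following a 1 h dark pre-incubation of compound with enzyme.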

Structures are written as SMILES. “And” between values parts separate entries of the source, which are not always exact repeats. Identical values can stand only once.

The IC50 is the concentration needed to halve the response being measured. The Kd is the free concentration of one partner at which half of the binding sites on the other are occupied at equilibrium, for simple one-to-one binding.

Sequence of full-length wt-BTK enzyme (Q06187 whole entry): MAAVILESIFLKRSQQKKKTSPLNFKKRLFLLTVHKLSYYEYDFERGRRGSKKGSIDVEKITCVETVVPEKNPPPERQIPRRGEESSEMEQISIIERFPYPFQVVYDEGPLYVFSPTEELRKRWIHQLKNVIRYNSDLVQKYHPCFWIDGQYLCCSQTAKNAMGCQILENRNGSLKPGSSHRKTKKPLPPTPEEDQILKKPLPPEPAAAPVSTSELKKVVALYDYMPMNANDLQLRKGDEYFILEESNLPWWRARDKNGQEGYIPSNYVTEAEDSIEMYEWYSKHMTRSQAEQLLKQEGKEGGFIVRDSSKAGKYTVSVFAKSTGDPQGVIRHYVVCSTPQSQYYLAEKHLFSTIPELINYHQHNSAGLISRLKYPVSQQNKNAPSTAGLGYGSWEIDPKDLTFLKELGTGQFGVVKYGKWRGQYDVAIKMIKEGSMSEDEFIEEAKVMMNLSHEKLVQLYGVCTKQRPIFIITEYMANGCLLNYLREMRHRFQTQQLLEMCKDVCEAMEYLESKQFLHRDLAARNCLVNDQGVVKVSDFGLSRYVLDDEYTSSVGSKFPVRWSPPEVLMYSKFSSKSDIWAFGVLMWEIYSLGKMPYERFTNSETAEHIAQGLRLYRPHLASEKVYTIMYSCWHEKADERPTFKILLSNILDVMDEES
Sequence of wt-BTK (Q06187 whole entry): as above
Sequence of BTK T474S (Q06187 whole entry T474S): as the sequence (Q06187 whole entry) above, with T474S counted along it
Sequence of BTK T316A (Q06187 whole entry T316A): as the sequence (Q06187 whole entry) above, with T316A counted along it
Sequence of BTK C481S (Q06187 whole entry C481S): as the sequence (Q06187 whole entry) above, with C481S counted along it
Sequence of full-length BTK C481S enzyme (Q06187 whole entry C481S): as the sequence (Q06187 whole entry) above, with C481S counted along it
Sequence of BTK T474I (Q06187 whole entry T474I): as the sequence (Q06187 whole entry) above, with T474I counted along it

Consider `C[C@@H]1CCn2nc(-c3ccc(C(=O)Nc4cc(C#N)ccn4)cc3)c3c(N)ncc(c32)/C=C/CCOCCC(=O)N1` [Example 153], for which the IC50 was less than 5 nM in assay [1]; 500 to 10000 nM with REC-1 T474I cell lines; 100 to 1000 nM in assay [2]; less than 100 nM in assay [3]; less than 5 nM in assay [4]. The Kd at BTK C481S was less than 5 nM; at BTK T474I it was less than 2 nM; on BTK T316A, less than 5 nM; at wt-BTK, less than 5 nM; at BTK T474S, less than 3 nM. Further, on BTK C481S, the “Tau (h) BTK C418S (Act)” value worked out at 1.67 h. For the same molecule, the “Tau (h) wt-BTK (Act)” value on wt-BTK came out at 1.29 h. The residence time at BTK T474S was 1.97 h.
Regarding `Nc1ncc2c3c1c(-c1ccc(C(=O)Nc4cc(C(F)(F)F)ccn4)cc1)nn3[C@@H]1CCC[C@H](C1)NC(=O)CCCC/C=C/2` [Example 48], the half-inhibitory concentration (IC50) in assay [1] was less than 5 nM; with REC-1 T474I cell lines, less than 100 nM; in assay [2], less than 100 nM; in assay [3] it was less than 100 nM; in [4], less than 5 nM. In addition, the Kd at BTK C481S is less than 5 nM; on BTK T474I, less than 2 nM; on BTK T316A, less than 5 nM; on wt-BTK it was less than 5 nM; on BTK T474S it was less than 3 nM. Further, at BTK C481S, the “Tau (h) BTK C418S (Act)” value stood at 4.27 h. Also, the “Tau (h) BTK T474I (Act)” value at BTK T474I was 2.01 h. In addition, the “Tau (h) BTK T316A (Act)” value at BTK T316A was 3.89 h. Moreover, at wt-BTK, the “Tau (h) wt-BTK (Act)” value is reported as 7.37 h. Further, the residence time on BTK T474S was 4.18 h.
Take `Nc1ncc2c3c1c(-c1ccc(C(=O)Nc4cc(C(F)(F)F)ccn4)cc1)nn3[C@@H]1CCC[C@H](C1)NC(=O)CCNC/C=C/2` [Example 21]: the IC50 in assay [1] is less than 5 nM; in the assay with REC-1 T474I cell lines it was 100 to 500 nM; in assay [2] it was less than 100 nM; in assay [3] it was less than 100 nM; in assay [4], less than 5 nM. Also, the dissociation constant Kd on BTK C481S was less than 5 nM; on BTK T474I it was less than 2 nM; on BTK T316A, less than 5 nM; on wt-BTK, less than 5 nM; on BTK T474S it was less than 3 nM. The “Tau (h) BTK C418S (Act)” value at BTK C481S is recorded as 7.53 h. Moreover, the “Tau (h) BTK T316A (Act)” value on BTK T316A was 3.89 h. Besides, the “Tau (h) wt-BTK (Act)” value on wt-BTK is listed as 4.34 h. Also, the residence time at BTK T474S was 3.59 h.
For `Nc1ncc2c3c1c(-c1ccc(C(=O)Nc4cc(C(F)(F)F)ccn4)cc1)nn3[C@@H]1CCC[C@H](C1)NC(=O)CNC[C@@H](O)/C=C/2` [Example 39], the IC50 in assay [1] was less than 5 nM; in the assay on REC-1 T474I cell lines, 500 to 10000 nM; in assay [2], 100 to 1000 nM; in assay [3], less than 100 nM; in [4] it was less than 5 nM. Besides, the Kd on BTK C481S was less than 5 nM; on BTK T474I it was less than 2 nM; at BTK T316A it was less than 5 nM; at wt-BTK, less than 5 nM; at BTK T474S, less than 3 nM. The “Tau (h) BTK C418S (Act)” value on BTK C481S was 2.54 h. At BTK T316A, the “Tau (h) BTK T316A (Act)” value worked out at 1.25 h. Further, the “Tau (h) wt-BTK (Act)” value at wt-BTK turned out to be 4.22 h. For the same molecule, the residence time at BTK T474S is 5.96 h.
Take `Nc1ncc2c3c1c(-c1ccc(C(=O)Nc4cc(C(F)(F)F)ccn4)cc1)nn3[C@@H]1CCCN(C1)C(=O)CCCCCC(O)/C=C/2` (stereo partly drawn) [Example 83]: the IC50 in assay [1] was less than 5 nM; in the assay with REC-1 T474I cell lines, 500 to 10000 nM; in assay [2], less than 100 nM; in [3] it was less than 100 nM; in assay [4], less than 5 nM. Moreover, the Kd is less than 5 nM on BTK C481S; less than 2 nM on BTK T474I; less than 5 nM on BTK T316A; less than 5 nM at wt-BTK; less than 3 nM on BTK T474S. Moreover, at BTK C481S, the “Tau (h) BTK C418S (Act)” value came to 4.44 h. The “Tau (h) BTK T316A (Act)” value on BTK T316A turned out to be 1.36 h. Also, the “Tau (h) wt-BTK (Act)” value on wt-BTK turned out to be 2.95 h. The residence time on BTK T474S was 3.04 h.
Consider `COc1ccc(F)cc1C(=O)NCc1ccc(-c2nn3c4c(cnc(N)c24)/C=C/CCCCCC(=O)N[C@H](C)CC3)cc1` [Example 139], for which the half-inhibitory concentration (IC50) in assay [1] is less than 5 nM; in the assay on REC-1 T474I cell lines it was 100 to 500 nM; in [2], 100 to 1000 nM; in [3], less than 100 nM; in assay [4] it was less than 5 nM. Besides, the Kd was less than 5 nM on BTK C481S; 10 to 50 nM and < 5 nM at BTK T474I; less than 5 nM at BTK T316A; less than 5 nM on wt-BTK; less than 3 nM at BTK T474S. Besides, the “Tau (h) BTK C418S (Act)” value on BTK C481S amounted to 1.36 h. Further, the “Tau (h) wt-BTK (Act)” value at wt-BTK came out at 1.38 h. At BTK T474S, the residence time is 2.11 h.
On to `Nc1ncc2c3c1c(-c1ccc(C(=O)Nc4cc(C(F)(F)F)ccn4)cc1)nn3[C@@H]1CC[C@H](C1)NC(=O)CCCCC/C=C/2` [Example 168], for which the concentration for half-maximal inhibition (IC50) in assay [1] was less than 5 nM; in the assay on REC-1 T474I cell lines it was less than 100 nM; in assay [2] it was less than 100 nM; in assay [3] it was less than 100 nM; in assay [4], less than 5 nM. Besides, the “Tau (h) BTK C418S (Act)” value at BTK C481S turned out to be 6.64 h. Also, the “Tau (h) BTK T474I (Act)” value on BTK T474I worked out at 3.14 h. Besides, the “Tau (h) BTK T316A (Act)” value at BTK T316A was 3.81 h. In addition, the “Tau (h) wt-BTK (Act)” value on wt-BTK amounted to 3.66 h. For the same molecule, the residence time on BTK T474S was greater than 24 h.
On to `C[C@@H]1CCn2nc(-c3ccc(C(=O)Nc4cc(C(F)(F)F)ccn4)cc3)c3c(N)ncc(c32)/C=C/COCCC(=O)N1` [Example 71], for which the IC50 was less than 5 nM in assay [1]; 100 to 500 nM in the assay on REC-1 T474I cell lines; less than 100 nM in [2]; less than 100 nM in assay [3]; less than 5 nM in assay [4]. For the same molecule, the Kd at BTK C481S is less than 5 nM; at BTK T474I, less than 2 nM; at BTK T316A it was less than 5 nM; at wt-BTK, less than 5 nM; on BTK T474S, less than 3 nM. Further, the “Tau (h) BTK C418S (Act)” value on BTK C481S is recorded as 4.52 h. Also, the “Tau (h) BTK T474I (Act)” value at BTK T474I amounted to 0.52 h. At BTK T316A, the “Tau (h) BTK T316A (Act)” value is recorded as 4.64 h. The “Tau (h) wt-BTK (Act)” value on wt-BTK worked out at 7.08 h. Besides, the residence time at BTK T474S was 4.32 h.
